The values that follow come from ChEMBL document CHEMBL1201862, “PubChem BioAssay data set” (2004).

Test systems include OVCAR-8; MDA-N; HOP-62; SN12C; NCI-H226; Hs-578T; DU-145; HCC 2998; A498; K562; MOLT-4; A549; SF-268; SK-MEL-28; HCT-15; OVCAR-3; MCF7; NCI-H23; LOX IMVI.
Common to all, as to assay: DTP human tumour cell line panel, 48 h

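How tested: cells in 96-well plates exposed to compound for 48 hours at five concentrations. At the GI50, growth is halved.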 Active and inactive are the calls of the source. Rule as the data show it: active = GI50 up to about 1.1 µM and inactive = higher.

A word on the GI50: it is the concentration at which growth is held to half of that of the control. For `Oc1cc(-c2cccc(OC(F)(F)F)c2)nc2cc3c(cc12)OCO3`, the GI50 with OVCAR-8 was 0.155 µM (active); in the experiment with MDA-N, 0.0143 µM (active); in the experiment on HOP-62, 0.119 µM (active); with SN12C, 0.169 µM (active); in the experiment on NCI-H226 it was 0.239 µM (active); in the experiment with Hs-578T, 0.1 µM (active). Moreover, the GI50 is 0.0459 µM (active) in the experiment with DU-145; 0.0631 µM (active) in the experiment on HCC 2998; 0.516 µM (active) with A498; 0.0275 µM (active) in the experiment on K562; 0.0371 µM (active) in the experiment on MOLT-4; 0.182 µM (active) in the experiment on A549. Also, the GI50 in the experiment on SF-268 is 2.72 µM (inactive); in the experiment on SK-MEL-28, 0.323 µM (active); with HCT-15, 0.0475 µM; in the experiment with OVCAR-3, 0.0547 µM (active); in the experiment on MCF7, 0.135 µM (active); with NCI-H23, 0.12 µM (active).
Regarding `FC(F)(F)c1nc2nc(Cl)c(Cl)nc2n1CCCN1CCOCC1`, the GI50 in the experiment on OVCAR-8 was 29.3 µM (inactive); in the experiment with MDA-N it was 35.7 µM (inactive); in the experiment on HOP-62, > 100 µM (inactive); in the experiment on SN12C it was 84.9 µM (inactive); in the experiment with NCI-H226 it was > 100 µM (inactive); in the experiment on Hs-578T it was 33.7 µM (inactive). The GI50 in the experiment on DU-145 is 24.9 µM (inactive); in the experiment with A498, 97.5 µM (inactive); with K562 it was 14.2 µM (inactive); in the experiment on MOLT-4, 13 µM (inactive); in the experiment on A549 it was > 100 µM (inactive); in the experiment on SF-268, 40.4 µM (inactive). For the same compound, the GI50 in the experiment on SK-MEL-28 was 33.7 µM (inactive); with LOX IMVI, 30.4 µM (inactive); in the experiment with HCT-15, 29 µM; in the experiment with OVCAR-3, 64.3 µM (inactive); in the experiment with MCF7 it was 53.1 µM (inactive); in the experiment on NCI-H23 it was 34.7 µM (inactive).
With `CC(=O)c1ccc2c(c1)CC1(C2)Cc2cc3c(cc2C1)C(=O)CC3` (configuration not stated), the GI50 in the experiment on OVCAR-8 is 3.49 µM (inactive); with MDA-N it was 0.207 µM (active); in the experiment with HOP-62, 2.67 µM (inactive); in the experiment on SN12C it was 4.25 µM (inactive); with NCI-H226, 0.31 µM (active); with Hs-578T, 5.73 µM (inactive). Further, the GI50 in the experiment with DU-145 is 1.4 µM (inactive); in the experiment on HCC 2998 it was 0.91 µM (active); in the experiment with A498, 0.401 µM (active); in the experiment with K562 it was 0.521 µM (active); with A549 it was 0.792 µM (active); in the experiment with SF-268, 3.15 µM (inactive). Further, the GI50 with SK-MEL-28 was 3.55 µM (inactive); with LOX IMVI it was 6.37 µM (inactive); in the experiment on HCT-15, 1.08 µM; in the experiment with OVCAR-3, 0.493 µM (active); in the experiment with MCF7 it was 0.429 µM (active); in the experiment on NCI-H23 it was 3.06 µM (inactive).
For the compound `O=C(CC(C(=O)O)N1CCOCC1)c1ccccc1` (configuration not stated), the GI50 with OVCAR-8 is 30.8 µM (inactive); in the experiment on MDA-N, 17.8 µM (inactive); with HOP-62, 27.4 µM (inactive); in the experiment on SN12C, 17.8 µM (inactive); in the experiment on NCI-H226 it was > 100 µM (inactive); with Hs-578T, 34.1 µM (inactive). Further, the GI50 was 23.6 µM (inactive) in the experiment on DU-145; 25.1 µM (inactive) in the experiment on A498; 18.8 µM (inactive) with K562; 15.2 µM (inactive) in the experiment with MOLT-4; 57.8 µM (inactive) in the experiment on A549; 19.5 µM (inactive) in the experiment with SF-268. Besides, the GI50 was 19.5 µM (inactive) in the experiment with SK-MEL-28; 17.5 µM (inactive) in the experiment with LOX IMVI; 19.5 µM in the experiment with HCT-15; 20 µM (inactive) in the experiment on OVCAR-3; 15.7 µM (inactive) in the experiment with MCF7; 20.7 µM (inactive) with NCI-H23.
Turning to `COc1cc(NS(C)(=O)=O)ccc1NCc1c[nH]c2ccc3nc(C)ccc3c12`, the GI50 was 50.1 µM (inactive) in the experiment with OVCAR-8; 41.2 µM (inactive) in the experiment with MDA-N; 55.5 µM (inactive) with HOP-62; 60.5 µM (inactive) with SN12C; 45.7 µM (inactive) in the experiment on NCI-H226; 72.1 µM (inactive) in the experiment on Hs-578T. Moreover, the GI50 in the experiment on DU-145 is 32.1 µM (inactive); in the experiment on A498 it was 20.3 µM (inactive); in the experiment on K562, 0.594 µM (active); with MOLT-4, 2.9 µM (inactive); in the experiment on A549 it was > 100 µM (inactive); in the experiment with SF-268 it was 28.1 µM (inactive). Also, the GI50 with SK-MEL-28 was > 100 µM (inactive); in the experiment with LOX IMVI, 49.5 µM (inactive); with HCT-15, 37.9 µM; in the experiment with OVCAR-3 it was 27.6 µM (inactive); in the experiment with MCF7, 36.1 µM (inactive); with NCI-H23, 15.8 µM (inactive).
For `COc1ccc(C2c3cc4c(cc3OC(N3CCOCC3)C2C)OCO4)cc1` (configuration not stated), the GI50 is 34.7 µM (inactive) in the experiment with OVCAR-8; 16.9 µM (inactive) in the experiment on MDA-N; 22.5 µM (inactive) with HOP-62; 37.3 µM (inactive) in the experiment on SN12C; 15.3 µM (inactive) in the experiment with Hs-578T; 27.7 µM (inactive) in the experiment with DU-145. Moreover, the GI50 with HCC 2998 was 22.4 µM (inactive); in the experiment with A498, 6.03 µM (inactive); in the experiment on K562, 12.8 µM (inactive); with MOLT-4 it was 12 µM (inactive); in the experiment with A549, 23.2 µM (inactive); in the experiment with SF-268 it was 27.9 µM (inactive). Also, the GI50 was 28.6 µM (inactive) in the experiment on SK-MEL-28; 24.1 µM (inactive) in the experiment on LOX IMVI; 24.5 µM in the experiment on HCT-15; 20.8 µM (inactive) with OVCAR-3; 26.1 µM (inactive) with MCF7; 39 µM (inactive) in the experiment on NCI-H23.
For `O=[N+]([O-])c1cc2c([N+](=O)[O-])cccc2o1`, the GI50 in the experiment with OVCAR-8 is 17 µM (inactive); with MDA-N it was 7.93 µM (inactive); in the experiment on HOP-62, 18.5 µM (inactive); with SN12C, 12.1 µM (inactive); in the experiment on NCI-H226, 12.6 µM (inactive); in the experiment with Hs-578T, 13.1 µM (inactive). Besides, the GI50 in the experiment with DU-145 was 14.7 µM (inactive); in the experiment with HCC 2998 it was 17.6 µM (inactive); in the experiment on A498, 22.4 µM (inactive); in the experiment on A549, 30.1 µM (inactive); with SF-268, 15.7 µM (inactive); with SK-MEL-28, 3.15 µM (inactive). In addition, the GI50 in the experiment with LOX IMVI is 3.66 µM (inactive); in the experiment on HCT-15 it was 4.59 µM; with OVCAR-3 it was 5.01 µM (inactive); with MCF7, 3.5 µM (inactive); in the experiment with NCI-H23, 15.8 µM (inactive).
In the case of `CCOC(=O)C1C(c2ccc(OC)cc2)c2c(nn(-c3ccccc3)c2O)CC1(C)O` (configuration not stated), the GI50 with OVCAR-8 was 98.2 µM (inactive); with MDA-N, 3.21 µM (inactive); in the experiment with HOP-62, > 100 µM (inactive); with SN12C, 91.2 µM (inactive); in the experiment on Hs-578T, > 100 µM (inactive); with DU-145, 38.8 µM (inactive). The GI50 is 26.4 µM (inactive) in the experiment with HCC 2998; > 100 µM (inactive) in the experiment on A498; 0.596 µM (active) in the experiment on MOLT-4; 18.9 µM (inactive) in the experiment with A549; > 100 µM (inactive) in the experiment with SF-268; 37.5 µM (inactive) with SK-MEL-28. The GI50 in the experiment with LOX IMVI was 0.813 µM (active); with HCT-15 it was 14.3 µM; in the experiment with OVCAR-3 it was 80.4 µM (inactive); in the experiment on MCF7 it was 33.6 µM (inactive); in the experiment on NCI-H23, 43.5 µM (inactive).
Turning to `Cc1cn([C@H]2C[C@](C)(CO)N(C)O2)c(=O)[nH]c1=O`, the GI50 with MDA-N, with HOP-62, in the experiment with SN12C, with NCI-H226, in the experiment with Hs-578T and in the experiment on DU-145 was > 100 µM (inactive) throughout. Besides, the GI50 with HCC 2998, in the experiment on A498, in the experiment with K562, in the experiment on MOLT-4, with A549 and in the experiment with SF-268 was > 100 µM (inactive) in each case. The GI50 with SK-MEL-28, in the experiment with LOX IMVI, in the experiment with MCF7 and with NCI-H23 was > 100 µM (inactive) each time.
On to `CC(C)(C)C1=C(Br)C(C(C)(C)C)OP1(=O)O` (configuration not stated), for which the GI50 in the experiment on OVCAR-8, with MDA-N, in the experiment with HOP-62, with SN12C, with NCI-H226 and with Hs-578T was > 100 µM (inactive) each time. The GI50 in the experiment on DU-145, in the experiment with HCC 2998, with A498, in the experiment with K562, with A549 and in the experiment on SF-268 was > 100 µM (inactive) in each case. In addition, the GI50 was > 100 µM (inactive) in the experiment with SK-MEL-28; > 100 µM (inactive) with LOX IMVI; above 100 µM in the experiment with HCT-15; > 100 µM (inactive) with OVCAR-3; > 100 µM (inactive) in the experiment with MCF7; > 100 µM (inactive) in the experiment on NCI-H23.
Regarding `CCC(C#N)NC(=O)NC(C#N)CC` (configuration not stated), the GI50 in the experiment with OVCAR-8, in the experiment with MDA-N, in the experiment on HOP-62, with SN12C, with NCI-H226 and in the experiment with Hs-578T was > 100 µM (inactive) each time. The GI50 in the experiment with DU-145 was > 100 µM (inactive); in the experiment on HCC 2998, > 100 µM (inactive); in the experiment on A498 it was > 100 µM (inactive); in the experiment with K562, 50.9 µM (inactive); in the experiment with MOLT-4 it was 28.5 µM (inactive); with A549, 77.3 µM (inactive). Moreover, the GI50 is > 100 µM (inactive) in the experiment with SF-268; > 100 µM (inactive) with LOX IMVI; above 100 µM with HCT-15; > 100 µM (inactive) with OVCAR-3; > 100 µM (inactive) in the experiment on MCF7; > 100 µM (inactive) with NCI-H23.
As for `O=C1Cc2c([nH]c3c(Cl)cccc23)-c2ccccc2N1`, the GI50 was > 100 µM (inactive) in the experiment with OVCAR-8; > 100 µM (inactive) with MDA-N; > 100 µM (inactive) with HOP-62; > 100 µM (inactive) in the experiment with SN12C; > 100 µM (inactive) in the experiment on NCI-H226; 87.3 µM (inactive) in the experiment with Hs-578T. Moreover, the GI50 in the experiment on DU-145, in the experiment on A498, in the experiment on K562, with MOLT-4, in the experiment with A549 and in the experiment on SF-268 was > 100 µM (inactive) in each case. The GI50 with SK-MEL-28 is > 100 µM (inactive); with LOX IMVI, > 100 µM (inactive); in the experiment on HCT-15, above 100 µM; with OVCAR-3, > 100 µM (inactive); with MCF7, > 100 µM (inactive); in the experiment on NCI-H23, > 100 µM (inactive).
